system: glycolysis in HT1080 cells; assay: Glycolysis assay: oligomycin plus compound, cellular ATP by Cell Titer Glo; type: cell-based; details: 10 μM oligomycin, one hour, class symbols
From the text: Therefore, an assay was developed that utilizes the combination of the glucose uptake inhibitors disclosed herein with oligomycin, a well-characterized inhibitor of ATP synthase. Because oligomycin inhibits ATP derived from oxidative phosphorylation, any remaining ATP production is derived from glycolysis. By reading out cellular ATP levels using the Promega Cell Titer Glo kit, the extent of glycolysis inhibition by the glucose uptake inhibitors disclosed herein can be assessed. […] Utilizing this experimental set-up, the IC50 of glycolysis inhibition for each compound can be determined.
Determination of Glucose Uptake/GLUT Activity (Glycolysis Assay):
HT1080 cells (as well as other cell types) were plated to confluency in 96-well plates. Cells were exposed to the combination of 10 μM Oligomycin (to block mitochondrial-derived ATP) and the glucose uptake inhibitors disclosed herein for one-hour, after which glycolytically-derived ATP was measured with the Cell Titer-Glo assay kit (Promega). Dose-response curves of the glucose uptake inhibitors disclosed herein were used to determine the IC50 for GLUT activity.

| SMILES | IC50 |
| --- | --- |
| O=C(Nc1cccc(-c2nc(Nc3ccc(-c4cn[nH]c4)cc3)c3sccc3n2)c1)c1cccnc1 [Example 43, N-(3-(4-((4-(1H-pyrazol-4-yl)phenyl)amino)thieno[3,2-d]pyrimidin-2-yl)phenyl)nicotinamide] | 101 to 250 nM |

same assay, conditions: Homo sapiens, HT-1080, 1 h, 10 μM oligomycin, one hour, class symbols

| SMILES | IC50 |
| --- | --- |
| O=C(CN1CCOCC1)Nc1cccc(-c2nc3c(c(Nc4ccc(-c5cn[nH]c5)cc4)n2)COC3)c1 [Example 2, N-(3-(4-((4-(1H-pyrazol-4-yl)phenyl)amino)-5,7-dihydrofuro[3,4-d]pyrimidin-2-yl)phenyl)-2-morpholinoacetamide] | > 1000 nM |
| CC(C)NC(=O)COc1cccc(-c2nc(Nc3ccc(-c4cn[nH]c4)cc3)c3occc3n2)c1 [Example 3, 2-(3-(4-((4-(1H-pyrazol-4-yl)phenyl)amino)furo[3,2-d]pyrimidin-2-yl)phenoxy)-N-isopropylacetamide] | 251 to 500 nM |
| O=C(CN1CCOCC1)Nc1cccc(-c2nc(Nc3ccc(-c4cn[nH]c4)cc3)c3occc3n2)c1 [Example 4, N-(3-(4-((4-(1H-pyrazol-4-yl)phenyl)amino)furo[3,2-d]pyrimidin-2-yl)phenyl)-2-morpholinoacetamide] | > 1000 nM |
| Cn1cnc2c(Nc3ccc(-c4cn[nH]c4)cc3)nc(-c3cccc(NC(=O)CN4CCOCC4)c3)nc21 [Example 6, N-(3-(6-((4-(1H-pyrazol-4-yl)phenyl)amino)-9-methyl-9H-purin-2-yl)phenyl)-2-morpholinoacetamide] | > 1000 nM |
| O=C(CN1CCOCC1)Nc1cccc(-c2nc(Nc3ccc(-c4cn[nH]c4)cc3)c3sccc3n2)c1 [Example 8, N-(3-(4-((4-(1H-pyrazol-4-yl)phenyl)amino)thieno[3,2-d]pyrimidin-2-yl)phenyl)-2-morpholinoacetamide] | > 1000 nM |
| CC(C)NC(=O)COc1cccc(-c2nc(Nc3ccc(-c4cn[nH]c4)cc3)c3ccsc3n2)c1 [Example 9, 2-(3-(4-((4-(1H-pyrazol-4-yl)phenyl)amino)thieno[2,3-d]pyrimidin-2-yl)phenoxy)-N-isopropylacetamide] | 101 to 250 nM |
| O=C(CN1CCOCC1)Nc1cccc(-c2nc(Nc3ccc(-c4cn[nH]c4)cc3)c3ccsc3n2)c1 [Example 10, N-(3-(4-((4-(1H-pyrazol-4-yl)phenyl)amino)thieno[2,3-d]pyrimidin-2-yl)phenyl)-2-morpholinoacetamide] | > 1000 nM |
| CC(C)NC(=O)COc1cccc(-c2nc3c(c(Nc4ccc5[nH]ncc5c4)n2)COC3)c1 [Example 11, 2-(3-(4-((1H-indazol-5-yl)amino)-5,7-dihydrofuro[3,4-d]pyrimidin-2-yl)phenoxy)-N-isopropylacetamide] | > 1000 nM |
| CC(C)NC(=O)COc1cccc(-c2nc(Nc3ccc4[nH]ncc4c3)c3ncn(C)c3n2)c1 [Example 13] | > 1000 nM |
| Cn1cnc2c(Nc3ccc4[nH]ncc4c3)nc(-c3cccc(NC(=O)CN4CCOCC4)c3)nc21 [Example 14] | > 1000 nM |
| CC(C)NC(=O)COc1cccc(-c2nc(Nc3ccc4[nH]ncc4c3)c3sccc3n2)c1 [Example 15] | > 1000 nM |
| O=C(CN1CCOCC1)Nc1cccc(-c2nc(Nc3ccc4[nH]ncc4c3)c3sccc3n2)c1 [Example 16] | > 1000 nM |
| CC(C)NC(=O)COc1cccc(-c2nc(Nc3ccc4[nH]ncc4c3)c3ccsc3n2)c1 [Example 17] | > 1000 nM |
| O=C(CN1CCOCC1)Nc1cccc(-c2nc(Nc3ccc4[nH]ncc4c3)c3ccsc3n2)c1 [Example 18] | > 1000 nM |
| O=C(COc1cccc(-c2nc(Nc3ccc(-c4cn[nH]c4)cc3)c3sccc3n2)c1)NC1CC1 [Example 20] | 501 to 1000 nM |
| Cn1cnc2c(Nc3ccc(-c4cn[nH]c4)cc3)nc(-c3cccc(OCC(=O)NC4CC4)c3)nc21 [Example 22] | > 1000 nM |
| O=C(COc1cccc(-c2nc(Nc3ccc(-c4cn[nH]c4)cc3)c3occc3n2)c1)NC1CCC1 [Example 25] | 251 to 500 nM |
| O=C(COc1cccc(-c2nc(Nc3ccc(-c4cn[nH]c4)cc3)c3occc3n2)c1)NC1CCCC1 [Example 26] | 251 to 500 nM |
| O=C(COc1cccc(-c2nc(Nc3ccc(-c4cn[nH]c4)cc3)c3ccsc3n2)c1)NC1CCC1 [Example 27] | 101 to 250 nM |
| O=C(COc1cccc(-c2nc(Nc3ccc(-c4cn[nH]c4)cc3)c3ccsc3n2)c1)NC1CCCC1 [Example 28] | 101 to 250 nM |
| Cn1cnc2c(Nc3ccc(-c4cn[nH]c4)cc3)nc(-c3cccc(OCC(=O)NC4CCC4)c3)nc21 [Example 29] | 251 to 500 nM |

| SMILES | IC50 |
| --- | --- |
| Cn1cnc2c(Nc3ccc(-c4cn[nH]c4)cc3)nc(-c3cccc(OCC(=O)NC4CCCC4)c3)nc21 [Example 30] | 101 to 250 nM |
| CC(C)NC(=O)COc1cc(F)cc(-c2nc3c(c(Nc4ccc(-c5cn[nH]c5)cc4)n2)COC3)c1 [Example 33] | 501 to 1000 nM |
| CC(C)NC(=O)COc1cc(F)cc(-c2nc(Nc3ccc(-c4cn[nH]c4)cc3)c3sccc3n2)c1 [Example 34] | > 1000 nM |
| CC(C)NC(=O)COc1cc(F)cc(-c2nc(Nc3ccc(-c4cn[nH]c4)cc3)c3ccsc3n2)c1 [Example 35] | > 1000 nM |
| CC(C)NC(=O)COc1cc(F)cc(-c2nc(Nc3ccc(-c4cn[nH]c4)cc3)c3ncn(C)c3n2)c1 [Example 36] | > 1000 nM |
| O=C(COc1cccc(-c2nc3c(c(Nc4ccc(-c5cn[nH]c5)cc4)n2)COC3)c1)N1CCOCC1 [Example 37, 2-(3-(4-((4-(1H-pyrazol-4-yl)phenyl)amino)-5,7-dihydrofuro[3,4-d]pyrimidin-2-yl)phenoxy)-1-morpholinoethan-1-one] | > 1000 nM |
| O=C(COc1cccc(-c2nc(Nc3ccc(-c4cn[nH]c4)cc3)c3sccc3n2)c1)N1CCOCC1 [Example 38, 2-(3-(4-((4-(1H-pyrazol-4-yl)phenyl)amino)thieno[3,2-d]pyrimidin-2-yl)phenoxy)-1-morpholinoethan-1-one] | 501 to 1000 nM |
| O=C(COc1cccc(-c2nc(Nc3ccc(-c4cn[nH]c4)cc3)c3ccsc3n2)c1)N1CCOCC1 [Example 39, 2-(3-(4-((4-(1H-pyrazol-4-yl)phenyl)amino)thieno[2,3-d]pyrimidin-2-yl)phenoxy)-1-morpholinoethan-1-one] | > 1000 nM |
| CNC(=O)COc1cccc(-c2nc(Nc3ccc(-c4cn[nH]c4)cc3)c3sccc3n2)c1 [Example 40, 2-(3-(4-((4-(1H-pyrazol-4-yl)phenyl)amino)thieno[3,2-d]pyrimidin-2-yl)phenoxy)-N-methylacetamide] | > 1000 nM |
| CCCNC(=O)COc1cccc(-c2nc(Nc3ccc(-c4cn[nH]c4)cc3)c3sccc3n2)c1 [Example 41, 2-(3-(4-((4-(1H-pyrazol-4-yl)phenyl)amino)thieno[3,2-d]pyrimidin-2-yl)phenoxy)-N-propylacetamide] | > 1000 nM |
| CNC(=O)COc1cccc(-c2nc3c(c(Nc4ccc(-c5cn[nH]c5)cc4)n2)COC3)c1 [Example 42, 2-(3-(4-((4-(1H-pyrazol-4-yl)phenyl)amino)-5,7-dihydrofuro[3,4-d]pyrimidin-2-yl)phenoxy)-N-methylacetamide] | > 1000 nM |
| CNC(=O)COc1cccc(-c2nc(Nc3ccc(-c4cn[nH]c4)cc3)c3ccsc3n2)c1 [Example 45, 2-(3-(4-((4-(1H-pyrazol-4-yl)phenyl)amino)thieno[2,3-d]pyrimidin-2-yl)phenoxy)-N-methylacetamide] | > 1000 nM |
| CCCNC(=O)COc1cccc(-c2nc(Nc3ccc(-c4cn[nH]c4)cc3)c3ccsc3n2)c1 [Example 46, 2-(3-(4-((4-(1H-pyrazol-4-yl)phenyl)amino)thieno[2,3-d]pyrimidin-2-yl)phenoxy)-N-propylacetamide] | 501 to 1000 nM |
| O=C(Nc1cccc(-c2nc3c(c(Nc4ccc(-c5cn[nH]c5)cc4)n2)COC3)c1)c1cccnc1 [Example 47, N-(3-(4-((4-(1H-pyrazol-4-yl)phenyl)amino)-5,7-dihydrofuro[3,4-d]pyrimidin-2-yl)phenyl)nicotinamide] | 10 to 100 nM |
| CC(C)NC(=O)COc1cccc(-c2nc(Nc3ccc(-c4cn[nH]c4)cc3)c3ncccc3n2)c1 [Example 48, 2-(3-(4-((4-(1H-pyrazol-4-yl)phenyl)amino)pyrido[3,2-d]pyrimidin-2-yl)phenoxy)-N-isopropylacetamide] | > 1000 nM |
| O=C(COc1cccc(-c2nc(Nc3ccc(-c4cn[nH]c4)cc3)c3ncccc3n2)c1)NC1CCC1 [Example 49, 2-(3-(4-((4-(1H-pyrazol-4-yl)phenyl)amino)pyrido[3,2-d]pyrimidin-2-yl)phenoxy)-N-cyclobutylacetamide] | 101 to 250 nM |
| CC(C(=O)Nc1cccc(-c2nc(Nc3ccc(-c4cn[nH]c4)cc3)c3ncccc3n2)c1)N1CCOCC1 (stereo not drawn) [Example 50, N-(3-(4-((4-(1H-pyrazol-4-yl)phenyl)amino)pyrido[3,2-d]pyrimidin-2-yl)phenyl)-2-morpholinopropanamide] | 501 to 1000 nM |
| O=C(COc1cccc(-c2nc(Nc3ccc(-c4cn[nH]c4)cc3)c3ncccc3n2)c1)NC1CCCC1 [Example 51, 2-(3-(4-((4-(1H-pyrazol-4-yl)phenyl)amino)pyrido[3,2-d]pyrimidin-2-yl)phenoxy)-N-cyclopentylacetamide] | 10 to 100 nM |
| CC(C)NC(=O)COc1cccc(-c2nc(Nc3ccc(-c4cn[nH]c4)cc3)c3cccnc3n2)c1 [Example 52, 2-(3-(4-((4-(1H-pyrazol-4-yl)phenyl)amino)pyrido[2,3-d]pyrimidin-2-yl)phenoxy)-N-isopropylacetamide] | 501 to 1000 nM |
| CC(C)CNC(=O)COc1cccc(-c2nc(Nc3ccc(-c4cn[nH]c4)cc3)c3ncccc3n2)c1 [Example 53, 2-(3-(4-((4-(1H-pyrazol-4-yl)phenyl)amino)pyrido[3,2-d]pyrimidin-2-yl)phenoxy)-N-isobutylacetamide] | 101 to 250 nM |

Reference: US10273248B2, “Glucose uptake inhibitors” (Kadmon Corporation LLC, priority 2015, dated 2019)
